Source: patent US11053409B2, “Compositions for containers and other articles and methods of using same” (priority 2011, dated 2021)

Assays:
[1] = suitable genotoxicity assays (e.g., Ames II assay); assay type: cell-based
Procedure: The mixture was stirred for 30 minutes at −10° C. Epichlorohydrin (1.9 liters, 24.2 moles) was added via dropping funnel at −10 to −5° C. The solution was allowed to warm up to room temperature and then was heated for 16 hours at a temperature of from 75 to 82° C. After cooling down to ambient temperature, the mixture was added to cold tap water (12 liters). Ethyl acetate (5 liters) was added to the mixture, which was stirred for 10 minutes and separated. The aqueous layer was extracted again with additional ethyl acetate (3 liters). The combined ethyl acetate extracts were washed twice with brine (2×6 liters), dried over anhydrous sodium sulfate (600 grams), and filtered. The solvent was removed under reduced pressure to give 887 grams of crude product as a purple oil. The crude product was dissolved in toluene (600 milliliters) and passed over a silica gel pad (1.4 kilograms), and eluted with a mixture of toluene and heptane (8 parts toluene to 2 parts heptane). The fractions containing product were combined and evaporated under reduced pressure. The product was mostly the desired diepoxide (756 grams, yellow oil which crystallizes in time), with some monoepoxide present. The purified material (756 grams) was dissolved at 70° C. in 2-propanol (2.3 liters) and then allowed to cool down to room temperature overnight. […]

MCF-7, clone WS8, cells = assay: MCF-7 cell proliferation assay of estrogenic activity; assay type: cell-based, human; conditions: logarithmic (base 10) Relative Proliferative Effect relative to 17-beta estradiol; values stated as expected or measured
Text: The MCF-7 assay uses MCF-7, clone WS8, cells to measure whether and to what extent a substance induces cell proliferation via estrogen receptor (ER)-mediated pathways. The method is described in “Test Method Nomination: MCF-7 Cell Proliferation Assay of Estrogenic Activity” submitted for validation by CertiChem, Inc. to the National Toxicology Program Interagency Center for the Evaluation of Alternative Toxicological Methods (NICEATM) on Jan. 19, 2006 (available online at http://iccvam.niehs.nih.gov/methods/endocrine/endodocs/SubmDoc.pdf).
A brief summary of the method of the aforementioned MCF-7 assay is provided below. MCF-7, clone WS8, cells are maintained at 37° C. in RMPI (or Roswell Park Memorial Institute medium) containing Phenol Red (e.g., GIBCO Catalog Number 11875119) and supplemented with the indicated additives for routine culture. An aliquot of cells maintained at 37° C. are grown for 2 days in phenol-free media containing 5% charcoal stripped fetal bovine serum in a 25 cm^2 tissue culture flask. Using a robotic dispenser such as an epMotion 5070 unit, MCF-7 cells are then seeded at 400 cells per well in 0.2 ml of hormone-free culture medium in Corning 96-well plates. The cells are adapted for 3 days in the hormone-free culture medium prior to adding the chemical to be assayed for estrogenic activity. The media containing the test chemical is replaced daily for 6 days. At the end of the 7-day exposure to the test chemical, the media is removed, the wells are washed once with 0.2 ml of HBSS (Hanks' Balanced Salt Solution), and then assayed to quantify amounts of DNA per well using a micro-plate modification of the Burton diphenylamine (DPA) assay, which is used to calculate the level of cell proliferation.
RPE is the ratio between the EC50 of the test chemical and the EC50 of the control substance 17-beta estradiol times 100, where EC50 is “effective concentration 50%” or half-maximum stimulation concentration for cell proliferation measured as total DNA in the MCF-7 assay.

human estrogen receptor = molecular target: T1, human estrogen receptor (Homo sapiens, UniProt P03372); assay: suitable in vitro assay whose results are directly correlated to the MCF-7 assay; conditions: in vitro assay correlated to MCF-7 assay through common reference compounds
T1 sequence (P03372 1-595): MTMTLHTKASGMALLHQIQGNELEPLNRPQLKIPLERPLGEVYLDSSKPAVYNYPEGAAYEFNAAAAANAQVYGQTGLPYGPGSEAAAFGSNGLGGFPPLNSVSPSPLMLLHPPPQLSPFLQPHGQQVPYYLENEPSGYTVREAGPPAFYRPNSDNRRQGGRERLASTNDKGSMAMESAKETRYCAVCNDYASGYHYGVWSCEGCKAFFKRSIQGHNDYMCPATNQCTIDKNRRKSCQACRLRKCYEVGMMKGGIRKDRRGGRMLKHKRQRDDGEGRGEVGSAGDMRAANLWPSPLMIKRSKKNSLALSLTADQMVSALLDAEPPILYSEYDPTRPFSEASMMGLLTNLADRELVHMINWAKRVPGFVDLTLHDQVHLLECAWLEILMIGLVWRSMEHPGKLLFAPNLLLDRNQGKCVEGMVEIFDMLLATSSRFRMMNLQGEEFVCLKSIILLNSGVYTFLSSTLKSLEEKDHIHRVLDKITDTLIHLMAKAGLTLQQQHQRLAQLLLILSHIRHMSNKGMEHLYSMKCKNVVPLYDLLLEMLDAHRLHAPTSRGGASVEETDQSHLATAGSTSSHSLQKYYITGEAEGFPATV

| Structure (SMILES) | genotoxicity [1] | Log RPE (MCF-7, clone WS8, cells) | estrogenic activity (human estrogen receptor) |
| --- | --- | --- | --- |
| CCCC(c1cc(C(C)(C)C)c(OCC2CO2)cc1C)c1cc(C(C)(C)C)c(OCC2CO2)cc1C (stereo not shown) | non-genotoxic | – | – |
| C[C@]12CC[C@@H]3c4ccc(O)cc4CC[C@H]3[C@@H]1CC[C@@H]2O [17β-estradiol, reference compound] | – | 2.00 | – |
| Oc1ccc(Cc2ccc(O)cc2)cc1 [Bisphenol F, reference compound] | – | −2 | – |
| O=S(=O)(c1ccc(O)cc1)c1ccc(O)cc1 [Bisphenol S, reference compound] | – | −2 | – |
| CC(C)(C)c1cc(Cc2cc(C(C)(C)C)c(OCC3CO3)c(C(C)(C)C)c2)cc(C(C)(C)C)c1OCC1CO1 (stereo not shown) [Diglycidyl ether of 4,4′-methylenebis(2,6-di-tert-butylphenol)] | non-genotoxic | – | – |
| O=c1c(-c2ccc(O)cc2)coc2cc(O)cc(O)c12 [Genistein, reference compound] | – | −2 | – |
| Cc1cc(C(C)(C)c2cc(C)c(O)c(C)c2)cc(C)c1O [Structure 1] | – | −2 | – |
| Cc1cc(CCc2cc(C)c(O)c(C)c2)cc(C)c1O [Structure 2] | – | −3 | – |
| CC(c1ccc(O)cc1)(c1ccc(O)cc1)c1ccc(O)cc1 [Structure 3] | – | −3 | – |
| CC(c1ccccc1)(c1ccc(O)cc1)c1ccc(O)cc1 [Structure 4] | – | −3 | – |
| Cc1cc(Cc2cc(C)c(O)c(C)c2)cc(C)c1O [Structure 6] | – | less than −4 | do not exhibit appreciable estrogenic activity |
| CCCC(c1cc(C(C)(C)C)c(O)cc1C)c1cc(C(C)(C)C)c(O)cc1C [Structure 7, 4,4′-butylidenebis(2-t-butyl-5-methylphenol)] | – | – | do not exhibit appreciable estrogenic activity |
| CCCC(c1cc(C(C)(C)C)c(O)cc1C)c1cc(C(C)(C)C)c(O)cc1C [Structure 7] | – | less than −4 | – |
| CC(C)(C)c1cc(Cc2cc(C(C)(C)C)c(O)c(C(C)(C)C)c2)cc(C(C)(C)C)c1O [Structure 8] | – | less than −4 | do not exhibit appreciable estrogenic activity |
| Cc1cc(Cc2cc(C)cc(C(C)(C)C)c2O)c(O)c(C(C)(C)C)c1 [Structure 9] | – | less than −4 | do not exhibit appreciable estrogenic activity |
| CC(C)(c1ccc(O)cc1)c1ccc(C(C)(C)c2ccc(O)cc2)cc1 [Structure 10] | – | less than −4 | – |
| Oc1ccccc1Cc1ccccc1O [Structure 11] | – | less than −4 | – |
| CC(C)(C)c1cc(O)c(C(C)(C)C)cc1O [Structure 12] | – | – | do not exhibit appreciable estrogenic activity |
| Cc1cc(Cc2cc(C)cc(C3(C)CCCCC3)c2O)c(O)c(C2(C)CCCCC2)c1 [Structure 13] | – | less than −4 | – |
| CCc1cc(Cc2cc(CC)cc(C(C)(C)C)c2O)c(O)c(C(C)(C)C)c1 [Structure 15] | – | less than −4 | – |
| C/C=C(/C(=C/C)c1ccc(O)cc1)c1ccc(O)cc1 [dienestrol, reference compound] | – | about 2 | – |
| CC/C(=C(/CC)c1ccc(O)cc1)c1ccc(O)cc1 [diethylstilbestrol, reference compound] | – | about 2 | – |
